Results taken from patent publication US20160287553A1, “TRANSLATION INHIBITORS IN HIGH-DOSE CHEMO- AND/OR HIGH-DOSE RADIOTHERAPY” (DEUTSCHES KREBSFORSCHUNGSZENTRUM, priority 2013, published 2016).
“Also recorded” adds a separate entry of the source.

Assays:
[1] = system: Splenocytes from p53-/- mice; assay: Etoposide-induced cell death in p53 knock-out splenocytes; type: cell-based, mouse; conditions: p53-KO splenocytes, 50 μM Etoposide, 75 nM Roc-A (FIG. 4b)
Method: (§1) DNA fragmentation was determined by FACS.
P53^−/− C57B1/6 mice (B6.Trp53tm1Tyj) were kindly provided by Liu H-K (German Cancer Research Center, Heidelberg, Germany). Spleens of 8-12 week old p53^−/−, and p53^+/+ mice were isolated in parallel, minced and incubated for 30 min in RPMI-1640 medium supplemented with DNase I (50 U/ml) and Collagenase IV (1 mg/ml) at 37° C. and 5% CO2. Splenocytes were filtered by […] cell strainer, washed twice with ice-cold wash buffer (PBS, 0.5% FCS, 2 mM EDTA) and resuspended in Oxford medium (RPMI 1640, 10% FCS, 100 μg/ml Penicillin, 100 μg/ml Streptamycin, 10 mM Hepes, 50 μM β-Mercaptoethanol, 2 mM L-glutamine, 1 mM sodium pyruvate, 100 μM non-essential amino acids) at a concentration of 2×10^6 cells/ml.
To further investigate the role of p53 in Roc-A-mediated protection of T cells against DNA damage-induced apoptosis, we performed a p53 knock-down experiment using a siRNA approach (FIG. 4a, upper panel). […] Therefore, we examined the effect of Roc-A on p53 knock-out (KO) cells.

p53 protein synthesis = assay: Metabolic pulse-labeling and immunoprecipitation of p53; type: cell-based, human; conditions: T cells, after Etoposide treatment, pulse-labeling (FIG. 6c)
Method: Subsequently, cells were washed in ice-cold PBS, lysed in IP buffer (20 mM Tris-HCl, […], 2 mM EDTA, 1% Triton X-100, protease inhibitors) and centrifuged (10,000 g, 20 min) to clear lysates. Aliquots were taken for input control and lysates were incubated overnight with sepharose-coupled protein A beads, anti-p53 antibody (FL-393; Santa Cruz, Heidelberg, Germany) or isotype control antibody (Sigma-Aldrich, Munich, Germany). Two wash-steps with IP buffer preceded boiling of beads in denaturing sample buffer at 95° C. for […]. Incorporation of […] into p53 protein was detected by the phosphoimaging system FLA-7000 IR (Fujifilm Europe GmbH, Düsseldorf, Germany).
Thus, Roc-A suppresses DNA-damage-induced upregulation of p53 at the translational level.

NK cells = assay: Etoposide-induced apoptosis in NK cells; type: cell-based, human; conditions: NK cells (FIG. 1c)
Method: as §1
(§2) Next, we asked whether Roc-A could also protect other normal primary cells from DNA damage-induced toxicity. To address this question, we examined the protective effect of Roc-A on Etoposide-treated human peripheral blood B cells, NK cells, neutrophils, cardiomyocytes and murine hematopoietic stem and progenitor cells (HSPCs).

[2] = system: L1236 (Hodgkin's lymphoma), p53 mutated; assay: Etoposide-induced cell death in L1236; type: cell-based, human; conditions: L1236 (FIG. 5a)
Method: as §1
(§3) Since Roc-A-mediated protection of non-malignant cells from DNA-damage-induced cell death is largely p53-dependent, we predicted that Roc-A would not protect cancer cells which have non-functional p53. […] 1997; 19: 243-253), Reh (Zhou et al, loc cit.), SKW6.4 (Barbarotto et al., J Cell Biochem. 2008; 104: 595-605) and NCI-H209 (Fujita et al. Int J Oncol. 1999; 15: 927-934) which have a WT p53 protein.

[3] = system: protein synthesis in T cells; assay: Translation assay: [35S]methionine incorporation in T cells; type: cell-based, human; conditions: T cells (FIG. 6b)
Method: The relative amount of protein synthesis was determined by measuring the amount of incorporation of ^35S-methionine into the protein. Briefly, cells were pre-cultured in methionine-free medium (supplemented with 10% dialyzed FCS) for 3 h, followed by incubation with 3.5 μCi of ^35S-methionine-labeling mix (PerkinElmer, Waltham, Mass., USA) per 8×10^5 cells for 6 h as indicated. After the treatment, cells were washed twice with ice-cold PBS and lysed in RIPA buffer. 50 μl of each lysate were added to 1 ml of Liquid Scintillation Cocktail solution (Beckman Coulter, Brea, Calif., USA) and the amount of incorporated radioactivity was determined by liquid scintillation counting.
Roc-A has been well documented to inhibit protein translation (Polier et al., Chem Biol. 2012; 19: 1093-1104; Sadlish et al., ACS Chem Biol. 2013; doi:10.1021/cb400158t; Bleumink et al., Cell Death Differ. 2011; 18: 362-370; Cencic et al., PloS one. 2009; 4: e5223). Thus, we expected that Roc-A-mediated suppression of genotoxin-induced p53 upregulation may be regulated by inhibition of p53 protein synthesis.

[4] = system: DND-41 (T cell leukemia), p53 mutated; assay: Etoposide-induced cell death in DND-41; type: cell-based, human; conditions: DND-41 (FIG. 5a)
Method: as §1, §3

malignant cells = assay: Fold change in cell death on raising the Etoposide dose, malignant cells (FIG. 9a-b); type: cell-based; conditions: 75 nM Roc-A in parallel to Etoposide, 6.25 μM to 50 μM, 24 h
Method: (a) Cells from (b) were grouped into malignant and non-malignant cells. Shown are means of three independent experiments. Abbreviations; HSPCs=hematopoietic stem and progenitor cells. (c-d) Malignant and non-malignant cells were exposed to ionizing radiation (IR) in the presence of 75 nM Roc-A or solvent (DMSO) and cell death was determined after 24 h by DNA fragmentation. Depicted is the fold-change in cell death that was measured when doses of IR were increased from 2 Gy to 10 Gy. (c) Cells from (d) were grouped into malignant and non-malignant cells. Shown are means of three independent experiments.
as §1
Roc-A specifically prevents the cause of chemotherapeutic and radiation-induced side-effects, i.e., the death of healthy cells. […] Consequently, high-dose therapy is not possible, as side effects would be too high.

[5] = system: human peripheral blood B cells; assay: Etoposide-induced apoptosis in B cells; type: cell-based; conditions: B cells (FIG. 1c)
Method: as §1, §2

COc1ccc([C@@]23Oc4cc(OC)cc(OC)c4[C@]2(O)[C@H](O)[C@H](C(=O)N(C)C)[C@H]3c2ccccc2)cc1 [Roc-A, (1R,2R,3S,3aR,8bS)-1,8b-dihydroxy-6,8-dimethoxy-3a-(4-methoxyphenyl)-N,N-dimethyl-3-phenyl-2,3-dihydro-1H-cyclopenta[b][1]benzofuran-2-carboxamide]
Protection against Etoposide-induced cell death [1]: abolished; also recorded: not statistically significant | [35S]methionine incorporation into the p53 protein (p53 protein synthesis): inhibits p53 protein translation; also recorded: suppressed [^35S]methionine incorporation into the p53 protein | Protection against Etoposide-induced apoptosis (NK cells): protected | Protection against Etoposide-induced cell death [2]: did neither protect | Inhibition of [35S]methionine incorporation (protein translation) [3]: inhibited [^35S]methionine incorporation at different degrees | Protection against Etoposide-induced cell death [4]: did neither protect | Change in cell death on increased Etoposide doses with Roc-A (malignant cells): increased cell death in malignant cells | Protection against Etoposide-induced apoptosis [5]: protected
